Assay results published in US20230210866A1 (priority 2020, published 2023).
Several values for one entry are separate records, joined by “and”; a condition that tells them apart may be missing. Equal entries are not always repeated. Where two headings read alike, the source gives them in different places.

How the values were obtained:
SARS-CoV-2 virus [1] = assay: Vero E6 cells infected by SARS-CoV-2, viral infectious titre in culture supernatant; type: cell-based; details: monotherapy
Protocol: The viral production relative to each of the concentrations of molecules has been determined and is shown with respect to the viral production from infected cells or HAE under the same conditions but untreated. The median inhibitory concentrations (IC50) were determined for each treatment condition.
The Vero E6 (ATCC CRL-1586) cells were cultivated in medium DMEM 4.5 g/l of glucose, supplemented by L-glutamine and penicillin/streptomycin and 10% inactivated foetal calf serum, at 37° C., 5% CO2.
In order to produce the infections, the cells were rinsed twice by the medium without serum and were covered by a minimum volume containing a dilution of virus, this dilution being determined from the infectious titre (cf. section on determination of the infectious titre), in order to obtain an adequate multiplicity of infection (MOI). After incubation for one hour in the presence of a minimum volume, the medium was replaced by the medium DMEM 4.5 g/l of glucose, supplemented by L-glutamine and penicillin/streptomycin and 2% inactivated foetal calf serum, and the cells were incubated again at 37° C., 5% CO2.
The determination of the infectious titre was performed using a limited dilution technique, on these Vero E6 cells on a 96-well plate. A volume of 50 µl of series dilutions was deposited in the wells in quadruplicates. The cells were then incubated at 37° C., 5% CO2 and the presence of cytopathic effects is then monitored after 3 days of infection. The infectious dose in tissue culture 50% (DICT50/ ml), i.e. the viral titre required to form an infection in 50% of inoculated cells, was calculated using the technique of Reed and Muench.
Vero E6 cells infected by SARS-CoV-2 (MOI 0.1) were treated at one hour post-infection by increasing concentrations of: • diltiazem (2.8 to 45 µM), • berberine (1.6 to 25 µM), and • remdesivir (0.6 to 10 µM), alone (FIG. 1) and in combination (FIG. 2).
For each of the combined treatments tested, a dose of one of the molecules was fixed and combined with increasing concentrations of the other molecule (same concentration ranges as those used in monotherapy, respectively) and vice versa. The viral infectious titres measured in the culture supernatants of the infected cells (sampled at 48 and 72 hours post-infection) reflect the level of viral replication measured under the various treatment conditions.

SARS-CoV-2 virus [2] = assay: Reconstituted human respiratory epithelium of nasal origin (MucilAir HAE) infected with SARS-CoV-2, viral genome RT-PCR; type: cell-based; details: alone or combined
Protocol: In order to produce the infections, we have also used a reconstituted human epithelium model (HAE MucilAir, Epithelix), obtained from primary human cells obtained by nasal biopsies, cultivated at the air-liquid interface with a specific culture medium in Costar Transwell inserts (Corning, NY, USA). For the infection experiments, the apical poles were gently washed twice using the medium OptiMEM (Gibco, ThermoFisher Scientific), then infected with 150 µl of virus dilution in medium OptiMEM, with a multiplicity of infection (MOI) of 0.1. After incubation for one hour at 37° C., 5% CO2, the viral suspension was withdrawn.
A quantitative “one-step” PCR was performed using the StepOnePlus Real Time PCR System kit (Applied Biosystems), with the reagent EXPRESS One-Step Superscript qRT-PCR (Invitrogen), in a reaction volume of 20 µl containing 10 µl of supermix Express qPCR (2×), 1 µl of each primer (10 µM), […], 0.4 µl Rox dye (25 µM) and 2 µl of viral RNA.
The following program was used: 15 minutes at 50° C., followed by 40 cycles (15 s 95° C.; 1 min 60° C.).
Reconstituted human respiratory epithelia of nasal origin and cultivated at the air-liquid interface (MucilAir® HAE, Epithelix) were infected with SARS-CoV-2 (MOI 0.1). The basal medium was treated once per day by the following molecules, in simple or combination treatment: • diltiazem (45 or 90 µM), • remdesivir (20 or 40 µM) and • berberine (4 µM) for 48 or 72 hours post-infection.
At various times, the epithelia were harvested and lysed. The total RNA was extracted and the viral genomes were quantified by RT-PCR by normalising the data using the quantification of the product of a cellular gene (GAPDH).

[3] = cited from earlier work
[4] = tested on: SARS-CoV-2 (Wuhan-like strain); assay: A549-ACE2 cells infected with SARS-CoV-2, viral titre in supernatant over time by RT-PCR; type: cell-based; details: A549-ACE2, MOI 10^-1 and 10^-2, single treatment 1 hpi, diltiazem 45 µM or remdesivir 5 µM, 24-96 hpi
Text: The cells of the cell line A549 are human alveolar basal epithelial cells derived from adenocarcinoma. This cell line is used as a model for the study of lung cancer, but also as target cells for infectious viruses targeting the respiratory tract. These cells were subsequently modified to express the ACE2 receptor, via which the SARS-CoV-2 virus penetrates into the hosts cells. This cell line A549-ACE2 was obtained from Creative Biogene (USA).
The experimental protocol is the following: • Seeding of the A549-ACE2 cells, • 24 hours after infection of the A549-ACE2 cells with a Wuhan-like strain of SARS-CoV-2 (MOI 10^-1 and 10^-2), • 1 hour post infection (pi), the cells are treated with 45 uM diltiazem. • The supernatants are sampled at 24 hours, 48 hours, 72 hours and 96 hours after the infection for a viral quantification by RT-PCR.
The incubation media used are the following: • Seeding medium: DMEM 1 g/L glucose (Glc), 200 mM L-Glutamine (L-Glu), […] penicillin/streptomycin (P/S), 10% foetal calf serum (FCS) • Infection medium: DMEM 1 g/L Glc, 200 mM L-Glu, 104 U P/S, 0% FCS • Treatment medium: DMEM 1 g/L Glc, 200 mM L-Glu, 104 U P/S, 2% FCS

[5] = tested on: SARS-CoV-2 (Wuhan-like strain); assay: IC50 of diltiazem on SARS-CoV-2 in A549-ACE2 cells, RT-PCR; type: cell-based; details: Severe acute respiratory syndrome coronavirus 2; A549-ACE2, MOI 10^-1, treated 1 hpi, 72 hours after infection
Protocol: The experimental protocol is the following: • Seeding of the A549-ACE2 cells, • 24 hours after infection of A549-ACE2 cells with a Wuhan-like strain of SARS-CoV-2 (MOI 10^-1), • 1 hour post infection (pi), the cells are treated with diltiazem at different concentrations. • The supernatants are sampled at 72 hours after the infection for a viral quantification by RT-PCR.
The IC50 is the median inhibitory concentration, i.e. the quantity of diltiazem necessary to obtain 50% inhibition of the viral replication of the tested SARS-CoV-2 strain.

[6] = Cytotoxicity (CC50) on A549-ACE2 cells, MTS test; type: cell-based; details: human, 72 hours of treatment, read-out: CC50 (cytotoxic concentration 50%)
Protocol: In parallel, the cytotoxicity of diltiazem on A549-ACE2 cells has been verified under the same experimental conditions. For this purpose, the CC50 (cytotoxic concentration 50%), which corresponds to the necessary dose of diltiazem in order to reduce the viability of the cells by half, was measured by monitoring the viability of the A549-ACE2 cells in the presence of various concentrations of diltiazem. The variability was determined by an MTS carried out 72 hours after the start of the treatment.
The MTS test is a colorimetric method: the method is based on the reduction of the compound MTS tetrazolium by viable cells in order to generate a coloured formazan product, enabling the counting of viable cells (coloured) […].

coronavirus SARS-CoV-2 = type: cell-based
[7] = MOI 0.1, 48 hpi, remdesivir 20 µM, diltiazem 90 µM, berberine 4 µM
[8] = Severe acute respiratory syndrome coronavirus 2, Vero C1008, Vero E6, MOI 0.01, 48 hpi, read-out: IC50
[9] = Severe acute respiratory syndrome coronavirus 2, Vero C1008, Vero E6, MOI 0.01, 72 hpi, read-out: IC50
[10] = MOI 0.1, 72 hpi, remdesivir 20 µM, diltiazem 90 µM
[11] = MOI 0.1, 72 hpi, remdesivir 40 µM, diltiazem 45 µM

COc1ccc2cc3[n+](cc2c1OC)CCc1cc2c(cc1-3)OCO2 [Berberine, berberine]
IC50 (SARS-CoV-2 virus [1]; Severe acute respiratory syndrome coronavirus 2, Vero C1008, Vero E6, MOI 0.01, 48 hpi): 17.5 µM
IC50 (SARS-CoV-2 virus [1]; Severe acute respiratory syndrome coronavirus 2, Vero C1008, Vero E6, MOI 0.01, 72 hpi): < 5.6 µM
IC50 (SARS-CoV-2 virus [1]; Vero E6, MOI 0.01, 72 hpi, read-out: IC50): 5.6 ± 1.7 µM
Reduction Relative viral production (%) (SARS-CoV-2 virus [2]; [7]): 86.37%
Reduction Relative viral production (-log10) (SARS-CoV-2 virus [2]; [7]): 0.86 -log10 and 0.8655 -log10
bioavailability [3]: low
half-life [3]: ~4 h

COc1ccc([C@@H]2Sc3ccccc3N(CCN(C)C)C(=O)[C@@H]2OC(C)=O)cc1.Cl [Diltiazem, diltiazem]
IC50 (SARS-CoV-2 virus [1]; [8]): > 45 µM
IC50 (SARS-CoV-2 virus [1]; [9]): > 45 µM
Reduction Relative viral production (%) (SARS-CoV-2 virus [2]; [7]): 55.13%
Reduction Relative viral production (-log10) (SARS-CoV-2 virus [2]; [7]): 0.35 -log10 and 0.348 -log10
Reduction Relative viral production (%) (SARS-CoV-2 virus [2]; [10]): 29.37%
Reduction Relative viral production (-log10) (SARS-CoV-2 virus [2]; [10]): 0.15 -log10 and 0.151 -log10
Reduction Relative viral production (%) (SARS-CoV-2 virus [2]; [11]): 31.35%
Reduction Relative viral production (-log10) (SARS-CoV-2 virus [2]; [11]): 0.16 -log10 and 0.1634 -log10
Inhibition of the viral titre in the supernatant over time (% of untreated) [4]: same level of inhibition of the viral titre
IC50 [5]: 19.7 µM
CC50 at 72 h [6]: 374 µM

CCC(CC)COC(=O)[C@H](C)N[P@](=O)(OC[C@H]1O[C@@](C#N)(c2ccc3c(N)ncnn23)[C@H](O)[C@@H]1O)Oc1ccccc1 [Remdesivir, remdesivir]
IC50 (SARS-CoV-2 virus [1]; [8]): 0.98 µM
IC50 (SARS-CoV-2 virus [1]; [9]): 0.72 µM
Reduction Relative viral production (%) (SARS-CoV-2 virus [2]; [7]): 100%
Reduction Relative viral production (-log10) (SARS-CoV-2 virus [2]; [7]): more than 7.75 -log10
Reduction Relative viral production (-log10) (SARS-CoV-2 virus [2]; MOI 0.1, 48 hpi, remdesivir 20 µM, diltiazem 90 µM, berberine 4 µM, listed as remdesivir): 7.351 -log10
Reduction Relative viral production (%) (SARS-CoV-2 virus [2]; [10]): 99.62%
Reduction Relative viral production (%) (SARS-CoV-2 virus [2]; [11]): 99.5%
Reduction Relative viral production (-log10) (SARS-CoV-2 virus [2]; [11]): 2.3 -log10 and 2.24 -log10

O=c1cc(-c2ccc(O)cc2)oc2cc(O)cc(O)c12 [apigenin]
Antiviral action against coronavirus SARS-CoV-2 (coronavirus SARS-CoV-2): does not have a significant antiviral action
